Measured values from patent US20110294732A1, “ERYTHROPOLETIN COMPLEMENTATION OR REPLACEMENT” (Universite De Strasbourg, priority 2007, published 2011).

Columns and labels:
Solubility of ITPP salts = format: physicochemical
Description: (§1) Alternatively, ITPP-Ca can be produced by the addition of equimolar amounts of CaCl2 with an aqueous solution of ITPP-Na. The resulting mixture gives ITPP-Ca, which contains NaCl as an impurity.

Toxicity of ITPP salts = settings: compared with the calcium salt / mixed salt
Description: as §1

hemoglobin [1] = target: T1, hemoglobin (Homo sapiens, UniProt P68871); settings: relative to DPG; cited from earlier work
T1 sequence (P68871 2-147 limits assumed): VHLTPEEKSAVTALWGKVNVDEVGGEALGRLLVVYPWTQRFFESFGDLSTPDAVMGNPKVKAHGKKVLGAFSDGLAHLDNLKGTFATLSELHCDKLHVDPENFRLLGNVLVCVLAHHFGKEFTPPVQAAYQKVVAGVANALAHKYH
T1 sequence (P69905 2-142 partner limits assumed): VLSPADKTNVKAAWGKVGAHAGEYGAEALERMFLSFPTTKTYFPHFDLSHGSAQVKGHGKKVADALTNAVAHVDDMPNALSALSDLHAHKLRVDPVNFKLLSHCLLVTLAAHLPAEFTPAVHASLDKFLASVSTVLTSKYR

[2] = Blood counts of mice after oral ingestion; format: in vivo; settings: single mouse, oral in water for 4 days, day 7; day 0 count 8.9-11.8
Description: Blood from mice that ingested ITPP or IHP in water (for 4 days) or water only was collected on day 0, 7 and 11, in order to assess any differences in the blood count (and the amount of erythropoietin in the sera) of treated and control mice. […] The amount of blood from the other mice was not sufficient to determine the blood count.

hemoglobin [3] = target: T1, hemoglobin; settings: pH 7.4 and 37 degrees C; cited from earlier work
[4] = Blood counts of mice after oral ingestion; format: in vivo; settings: single mouse, oral in water for 4 days; day 0 count 8.9-11.8
circulating RBC = assay: P50 shift of circulating RBC after oral administration in drinking water; format: in vivo, C57BL/6 mice
Protocol: In experiments conducted in vivo in which ITPP was administered orally, ITPP was dissolved in drinking (not deionized) water at a 20 g/L-concentration (=27 mM, pH 7.0) and offered for drinking ad libitum. A significant shift of the P50 value of circulating RBCs was observed.
Twelve C57BL/6 mice drank ITPP over 4 days (about 25 ml/24 hrs). Seven Control mice drank either pure water (three mice), or a solution of IHP (inositol hexaphosphate without the internal pyrophosphate rings) at the same concentration and pH as ITPP (4 mice). […] Blood was collected from the tail vein of the 12 C57BL/6 mice on day 0 (before treatment started), 1, 2, 4, 6, 7, 8, 10, 11 and 12, in order to measure P50 values. […] Oral application of ITPP caused significant right shifts of P50 (up to 31%) in mice.
The 12 mice were observed over 12 days, the P50 values of their circulating RBC were measured almost daily. […] It appears that all mice ingesting the aqueous solution of ITPP present a shift of the P50 value of their circulating RBC, albeit with individual differences. FIG. 8 illustrates the individual differences in the P50 shift induced in the mice by ingestion of the aqueous solution of ITPP.

Structure (SMILES): O=P1([O-])OC2C3OP(=O)([O-])OP(=O)([O-])OC3C3OP(=O)([O-])OP(=O)([O-])OC3C2OP(=O)([O-])O1.[Ca+2].[Ca+2].[Ca+2] (stereo not drawn) [pure calcium salt of ITPP, Calcium Salt of myo-inositol 1,6:2,3:4,5-tripyrophosphate]
- solubility (Solubility of ITPP salts): relatively insoluble

Structure (SMILES): O=P1([O-])OC2C3OP(=O)([O-])OP(=O)([O-])OC3C3OP(=O)([O-])OP(=O)([O-])OC3C2OP(=O)([O-])O1.[Na+].[Na+].[Na+].[Na+].[Na+].[Na+] (stereo not drawn) [pure sodium salt, myo-inositol tripyrophosphate]
- toxicity (Toxicity of ITPP salts): relatively more toxic

Structure (SMILES): O=P(O)(O)O[C@H]1[C@H](OP(=O)(O)O)[C@@H](OP(=O)(O)O)[C@H](OP(=O)(O)O)[C@@H](OP(=O)(O)O)[C@H]1OP(=O)(O)O [IHP, Inositol hexaphosphate, reference compound]
- affinity to hemoglobin, higher than DPG (hemoglobin [1]): 1000 fold
- RBC × 10^6/mm^3 (day 7) [2]: 9.6 10^6/mm^3
- P50 of hemoglobin increased up to (hemoglobin [3]): ≤ 96.4 mm Hg
- RBC × 10^6/mm^3 [4]: 10.77 10^6/mm^3
- right shift of P50 (circulating RBC; oral, 20 g/L (27 mM) in drinking water over 4 days): complete absence of shift
- P50 day 7, % (circulating RBC; single mouse, oral in water for 4 days, day 7): 3%
- P50 day 10, % (circulating RBC; single mouse, oral in water for 4 days, day 10): 0%
